Reference: patent US7880007B2, “Bicyclic substituted phenyl piperidine modulators of muscarinic receptors” (Vertex Pharmaceuticals Incorporated, priority 2004, dated 2011)

Key:
Type in all cases: cell-based
[1] = molecular target: T1, M3 muscarinic receptor (Homo sapiens, UniProt P20309); assay: Functional mobilization of intracellular calcium (FLIPR), M3-CHO cells; details: for Emax: 100% efficacy = maximum response obtained with the Carbachol control; for M3 Activity: M3-CHO cells, calcium mobilization (FLIPR)
T1 construct: expressed in transfected cells; host or cells: CHO (M3-CHO)
How it was run: (§1)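 CHO cells expressing human M1–M4 receptors loaded with Fluo-3 AM or Calcium 3 dye (1 mM probenecid, pH 7.4); 0.5% DMSO final. Agonist mode: compound added directly; antagonist mode: 15 min pre-incubation or co-application, then carbachol at EC80. Fluorescence read 60 s on FLIPR; efficacy relative to carbachol maximum.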

[2] = molecular target: T2, M4 muscarinic receptor (Homo sapiens, UniProt P08173); assay: Functional mobilization of intracellular calcium (FLIPR), M4-CHO cells; details: for Emax: 100% efficacy = maximum response obtained with the Carbachol control; for M4 Activity: M4-CHO cells, calcium mobilization (FLIPR)
T2 construct: expressed in transfected cells; host or cells: CHO (M4-CHO)
T2 sequence (P08173 1-479): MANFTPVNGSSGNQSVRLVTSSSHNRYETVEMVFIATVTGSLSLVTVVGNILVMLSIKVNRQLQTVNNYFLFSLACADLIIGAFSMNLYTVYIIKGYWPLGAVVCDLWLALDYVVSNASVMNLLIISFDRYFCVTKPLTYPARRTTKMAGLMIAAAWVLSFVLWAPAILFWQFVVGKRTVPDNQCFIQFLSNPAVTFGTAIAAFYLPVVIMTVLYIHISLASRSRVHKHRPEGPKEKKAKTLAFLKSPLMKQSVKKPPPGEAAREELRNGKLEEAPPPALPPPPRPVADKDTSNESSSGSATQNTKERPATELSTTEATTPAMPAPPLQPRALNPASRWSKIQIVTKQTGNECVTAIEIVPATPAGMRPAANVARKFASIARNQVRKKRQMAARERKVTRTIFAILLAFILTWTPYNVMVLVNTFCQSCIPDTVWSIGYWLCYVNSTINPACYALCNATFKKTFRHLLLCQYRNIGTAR
How it was run: as §1

[3] = molecular target: T3, M1 muscarinic receptor (Homo sapiens, UniProt P11229); assay: Functional mobilization of intracellular calcium (FLIPR), M1-CHO cells; details: for Emax: 100% efficacy = maximum response obtained with the Carbachol control; for M1 Activity: M1-CHO cells, calcium mobilization (FLIPR)
T3 construct: expressed in transfected cells; host or cells: CHO (M1-CHO)
T3 sequence (P11229 1-460): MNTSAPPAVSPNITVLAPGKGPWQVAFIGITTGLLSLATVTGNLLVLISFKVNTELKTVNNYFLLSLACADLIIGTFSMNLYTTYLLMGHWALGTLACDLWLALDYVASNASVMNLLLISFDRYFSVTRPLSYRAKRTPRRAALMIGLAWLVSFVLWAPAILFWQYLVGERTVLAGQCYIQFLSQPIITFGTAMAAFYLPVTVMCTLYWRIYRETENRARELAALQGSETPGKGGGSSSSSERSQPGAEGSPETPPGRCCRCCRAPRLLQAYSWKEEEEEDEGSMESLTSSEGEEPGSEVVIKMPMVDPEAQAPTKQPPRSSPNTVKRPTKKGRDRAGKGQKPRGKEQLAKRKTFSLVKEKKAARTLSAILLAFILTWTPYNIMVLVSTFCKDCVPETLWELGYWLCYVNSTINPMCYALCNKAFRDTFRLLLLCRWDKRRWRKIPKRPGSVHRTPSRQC
How it was run: as §1

[4] = molecular target: T4, M2 muscarinic receptor (Homo sapiens, UniProt P08172); assay: Functional mobilization of intracellular calcium (FLIPR), M2-CHO cells; details: for Emax: 100% efficacy = maximum response obtained with the Carbachol control; for M2 Activity: M2-CHO cells, calcium mobilization (FLIPR)
T4 construct: expressed in transfected cells; host or cells: CHO (M2-CHO)
T4 sequence (P08172 1-466): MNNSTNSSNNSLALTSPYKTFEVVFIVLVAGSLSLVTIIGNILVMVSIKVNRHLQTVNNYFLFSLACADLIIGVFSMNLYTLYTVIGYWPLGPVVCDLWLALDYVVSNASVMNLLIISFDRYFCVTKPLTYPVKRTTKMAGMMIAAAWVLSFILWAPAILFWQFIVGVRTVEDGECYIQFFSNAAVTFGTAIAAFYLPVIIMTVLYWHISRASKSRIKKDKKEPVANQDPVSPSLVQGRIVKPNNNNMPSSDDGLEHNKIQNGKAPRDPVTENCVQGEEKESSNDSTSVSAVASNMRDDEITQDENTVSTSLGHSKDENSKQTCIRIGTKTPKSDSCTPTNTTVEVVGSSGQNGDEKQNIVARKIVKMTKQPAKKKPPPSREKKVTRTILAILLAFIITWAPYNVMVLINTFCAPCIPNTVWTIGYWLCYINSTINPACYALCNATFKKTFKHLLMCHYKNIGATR
How it was run: as §1

T1 sequence (P20309 whole entry): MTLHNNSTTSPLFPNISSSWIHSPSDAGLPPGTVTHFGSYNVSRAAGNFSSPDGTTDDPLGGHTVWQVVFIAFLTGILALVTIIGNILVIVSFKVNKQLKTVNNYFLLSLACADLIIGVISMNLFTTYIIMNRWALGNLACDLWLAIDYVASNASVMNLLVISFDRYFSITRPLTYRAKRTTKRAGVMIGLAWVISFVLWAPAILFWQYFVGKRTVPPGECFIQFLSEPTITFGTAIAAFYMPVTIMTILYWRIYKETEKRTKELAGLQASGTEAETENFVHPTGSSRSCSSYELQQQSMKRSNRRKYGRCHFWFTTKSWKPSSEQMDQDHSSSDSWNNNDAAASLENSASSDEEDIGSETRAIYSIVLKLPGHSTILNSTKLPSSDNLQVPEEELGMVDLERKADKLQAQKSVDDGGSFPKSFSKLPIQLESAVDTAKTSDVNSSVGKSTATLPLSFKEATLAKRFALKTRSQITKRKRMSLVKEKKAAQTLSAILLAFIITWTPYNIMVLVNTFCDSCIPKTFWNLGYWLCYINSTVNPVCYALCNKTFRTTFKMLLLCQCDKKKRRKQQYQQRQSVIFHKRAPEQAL

Row | SMILES | Emax [1] | M3 Activity [1] | Emax [2] | M4 Activity [2] | Emax [3] | M1 Activity [3] | Emax [4] | M2 Activity [4]
1 | COc1ccccc1C1CCN(C2CCCC2)CC1 [Compound 15] | < 25% | + (activity was measured to be greater than 5.0 μM) | 25 to 100% | +++ (activity was measured to be less than 1.0 μM) | < 25% | + (activity was measured to be greater than 5.0 μM) | < 25% | + (activity was measured to be greater than 5.0 μM)
2 | O=C(COc1ccccc1C1CCN([C@H]2C[C@H]3CC[C@H]2C3)CC1)c1cccc(Cl)c1 [Compound 16] | < 25% | + (activity was measured to be greater than 5.0 μM) | 25 to 100% | ++ (activity was measured to be from 1.0 μM to 5.0 μM) | < 25% | + (activity was measured to be greater than 5.0 μM) | < 25% | + (activity was measured to be greater than 5.0 μM)
3 | COc1ccc(-c2ccc(C(=O)N3CCCC3)cc2)cc1C1CCN([C@H]2C[C@H]3CC[C@H]2C3)CC1 [Compound 17] | < 25% | + (activity was measured to be greater than 5.0 μM) | 25 to 100% | ++ (activity was measured to be from 1.0 μM to 5.0 μM) | < 25% | + (activity was measured to be greater than 5.0 μM) | < 25% | + (activity was measured to be greater than 5.0 μM)
4 | COc1ccc(F)cc1C1CCN(C[C@H]2C[C@H]3C=C[C@H]2C3)CC1 [Compound 18] | < 25% | + (activity was measured to be greater than 5.0 μM) | 25 to 100% | +++ (activity was measured to be less than 1.0 μM) | 25 to 100% | +++ (activity was measured to be less than 1.0 μM) | 25 to 100% | +++ (activity was measured to be less than 1.0 μM)
5 | CCC(=O)COc1ccccc1C1CCN([C@H]2C[C@H]3CC[C@H]2C3)CC1 [Compound 19] | < 25% | + (activity was measured to be greater than 5.0 μM) | 25 to 100% | +++ (activity was measured to be less than 1.0 μM) | 25 to 100% | ++ (activity was measured to be from 1.0 μM to 5.0 μM) | < 25% | + (activity was measured to be greater than 5.0 μM)
6 | COc1ccc(-c2ccc([S+](C)[O-])cc2)cc1C1CCN(C2CCOCC2)CC1 (stereo not drawn) [Compound 22] | < 25% | + (activity was measured to be greater than 5.0 μM) | < 25% | + (activity was measured to be greater than 5.0 μM) | < 25% | + (activity was measured to be greater than 5.0 μM) | < 25% | + (activity was measured to be greater than 5.0 μM)
7 | Cc1ccccc1C1CCN([C@H]2C[C@H]3CC[C@H]2C3)CC1 [Compound 24] | < 25% | + (activity was measured to be greater than 5.0 μM) | 25 to 100% | +++ (activity was measured to be less than 1.0 μM) | 25 to 100% | ++ (activity was measured to be from 1.0 μM to 5.0 μM) | 25 to 100% | ++ (activity was measured to be from 1.0 μM to 5.0 μM)
8 | COc1ccccc1C1(O)CCN(C2CC3CCC2C3)CC1 (stereo not drawn) [Compound 25] | – | + (activity was measured to be greater than 5.0 μM) | < 25% | + (activity was measured to be greater than 5.0 μM) | < 25% | + (activity was measured to be greater than 5.0 μM) | < 25% | + (activity was measured to be greater than 5.0 μM)
9 | CC(C)Oc1ccccc1C1CCN([C@H]2C[C@H]3CC[C@H]2C3)CC1 [Compound 26] | < 25% | + (activity was measured to be greater than 5.0 μM) | 25 to 100% | +++ (activity was measured to be less than 1.0 μM) | 25 to 100% | ++ (activity was measured to be from 1.0 μM to 5.0 μM) | < 25% | + (activity was measured to be greater than 5.0 μM)
10 | COc1ccc(Cl)cc1C1CCN(C2CC3CCC(C3)C2)CC1 (stereo not drawn) [Compound 27] | < 25% | + (activity was measured to be greater than 5.0 μM) | 25 to 100% | +++ (activity was measured to be less than 1.0 μM) | 25 to 100% | ++ (activity was measured to be from 1.0 μM to 5.0 μM) | 25 to 100% | ++ (activity was measured to be from 1.0 μM to 5.0 μM)
11 | COc1ccccc1C1(O)CCN(CC2CC3C=CC2C3)CC1 (stereo not drawn) [Compound 29] | – | + (activity was measured to be greater than 5.0 μM) | 25 to 100% | ++ (activity was measured to be from 1.0 μM to 5.0 μM) | 25 to 100% | + (activity was measured to be greater than 5.0 μM) | < 25% | + (activity was measured to be greater than 5.0 μM)
12 | CCOC(=O)N1CCC(N2CCC(O)(c3cc(Cl)ccc3OC)CC2)CC1 [Compound 31] | < 25% | + (activity was measured to be greater than 5.0 μM) | 25 to 100% | +++ (activity was measured to be less than 1.0 μM) | 25 to 100% | ++ (activity was measured to be from 1.0 μM to 5.0 μM) | < 25% | + (activity was measured to be greater than 5.0 μM)
13 | FC(F)(F)c1ccccc1C1CCN(C2C[C@H]3CC[C@H]2C3)CC1 (stereo partly drawn) [Compound 32] | < 25% | – | 25 to 100% | – | 25 to 100% | – | < 25% | –
14 | CCOC(=O)N1C2CCC1CC(N1CCC(c3cc(-c4ccc(C(C)(C)C#N)cc4)ccc3OC)CC1)C2 (stereo not drawn) [Compound 33] | < 25% | + (activity was measured to be greater than 5.0 μM) | 25 to 100% | ++ (activity was measured to be from 1.0 μM to 5.0 μM) | 25 to 100% | ++ (activity was measured to be from 1.0 μM to 5.0 μM) | < 25% | + (activity was measured to be greater than 5.0 μM)
15 | COc1ccccc1C1CCN(C2CC(C)CC(C)C2)CC1 (stereo not drawn) [Compound 34] | < 25% | + (activity was measured to be greater than 5.0 μM) | < 25% | + (activity was measured to be greater than 5.0 μM) | < 25% | + (activity was measured to be greater than 5.0 μM) | < 25% | + (activity was measured to be greater than 5.0 μM)
